From patent publication US20260356851A1, “TRICYCLIC COMPOUNDS AND USES THEREOF” (HUTCHMED LIMITED, priority 2023, published 2026) come the findings set out here.

Holding throughout (assay type): cell-based
Assay [1] addresses T1, pERK1/2 (Thr202/Tyr204), PANC-1 (KRAS G121D) (Homo sapiens, UniProt P01116, G12D).
T1 construct: pERK1/2 HTRF read-out
Briefly: Assay of intracellular pERK1/2 (Thr202/Tyr204) phosphorylation in PANC-1 cells (KRAS G12D). As to conditions: pERK1/2, 2 days, read-out: PANC-1 (KRAS G12D) IC50. The gist of the method: (§1)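 HTRF detection of Thr202/Tyr204-phosphorylated ERK1/2 (665/615 nm ratio) in lysates from cells treated 2 days with serially 3-fold diluted compound.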

The target in assay [2] is T2, pERK1/2 (Thr202/Tyr204), NCI-1H441 (KRAS G12V) (Homo sapiens, UniProt P01116, G12V).
T2 construct: pERK1/2 HTRF read-out
T2 sequence (P01116 1-188 isoform P01116-2 G12V): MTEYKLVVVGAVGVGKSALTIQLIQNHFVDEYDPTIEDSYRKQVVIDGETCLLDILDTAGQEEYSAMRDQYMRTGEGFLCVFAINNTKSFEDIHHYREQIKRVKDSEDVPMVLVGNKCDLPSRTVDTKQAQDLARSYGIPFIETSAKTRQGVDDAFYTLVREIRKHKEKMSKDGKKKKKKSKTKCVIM
The assay is described as follows: Assay of intracellular pERK1/2 (Thr202/Tyr204) phosphorylation in NCI-H441 cells (KRAS G12V). As to conditions: pERK1/2, 2 days, read-out: NCI-H441 (KRAS G12V) IC50. The gist of the method: as §1

Assay [3] concerns the target T3, pERK1/2 (Thr202/Tyr204), NCI-1H358 (KRAS G12C) (Homo sapiens, UniProt P01116, G12C).
T3 construct: pERK1/2 HTRF read-out
The assay is described as follows: Assay of intracellular pERK1/2 (Thr202/Tyr204) phosphorylation in NCI-H358 cells (KRAS G12C). The note with it: pERK1/2, 2 days, read-out: NCI-H358 (KRAS G12C) IC50. The procedure, abridged:
as §1

T1 sequence (P01116 1-188 isoform P01116-2 G12D): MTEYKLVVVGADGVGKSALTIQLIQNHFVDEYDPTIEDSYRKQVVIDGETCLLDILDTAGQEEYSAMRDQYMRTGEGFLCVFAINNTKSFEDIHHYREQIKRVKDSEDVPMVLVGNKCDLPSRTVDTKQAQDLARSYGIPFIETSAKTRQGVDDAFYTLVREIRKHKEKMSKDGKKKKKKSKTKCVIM
T3 sequence (P01116 1-188 isoform P01116-2 G12C): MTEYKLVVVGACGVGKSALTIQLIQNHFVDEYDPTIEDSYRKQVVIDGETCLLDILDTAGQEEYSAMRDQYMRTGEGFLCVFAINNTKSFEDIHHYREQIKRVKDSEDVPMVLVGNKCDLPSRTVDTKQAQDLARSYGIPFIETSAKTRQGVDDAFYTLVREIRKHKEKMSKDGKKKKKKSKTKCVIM

With `Cc1c(F)c(N)cc(-c2nc3c4c(nc(OC[C@@]56CCCN5C[C@H](F)C6)nc4c2F)N([C@@H](C)c2cc(F)cnc2N)[C@@H](C)CO3)c1C(F)(F)F` [Compound 366], the IC50 in assay [1], in assay [2] and in assay [3] was greater than 100 nM each time.
As for `CC(c1cc(F)cnc1N)N1c2nc(OC[C@@]34CCCN3C[C@H](F)C4)nc3c(F)c(-c4c5cn[nH]c5cc5cccc(F)c45)nc(c23)OC[C@@H]1C` (stereo partly drawn) [Compound 367], the IC50 in assay [1] stood at 1 nM; in assay [2] it was 0.4 nM; in assay [3] it was 0.2 nM.
For the compound `Cc1c(C(F)(F)F)c(-c2nc3c4c(nc(OC[C@@]56CCCN5C[C@H](F)C6)nc4c2F)N(C(C)c2cc(F)cnc2N)[C@@H](C)CO3)c2cn[nH]c2c1F` (stereo partly drawn) [Compound 368], the IC50 in assay [1] is 0.6 nM; in assay [2], 0.3 nM; in assay [3] it was 0.3 nM.
For the compound `CC(c1cccnc1N)N1c2nc(OC[C@@]34CCCN3C[C@H](F)C4)nc3c(F)c(-c4c5cn[nH]c5cc5ccc(F)c(F)c45)nc(c23)OC[C@@H]1C` (stereo partly drawn) [Compound 369], the IC50 in assay [1] was found to be 0.4 nM; in assay [2], 0.2 nM; in assay [3], 0.2 nM.
As to `CC(c1cccnc1N)N1c2nc(OC[C@@]34CCCN3C[C@H](F)C4)nc3c(F)c(-c4c5c(cc6[nH]ncc46)CCC5(F)F)nc(c23)OC[C@@H]1C` (stereo partly drawn) [Compound 370], the IC50 in assay [1] is 2 nM; in assay [2], 3 nM; in assay [3] it was 1 nM.
In the same order, the values of `CC(c1cccnc1N)N1c2nc(OC[C@@]34CCCN3C[C@H](F)C4)nc3c(F)c(-c4cc(F)cc5c4C(F)(F)CC5)nc(c23)OC[C@@H]1C` (stereo partly drawn) [Compound 371] are 57 nM, 11 nM and 3 nM.
In the same order, the values of `Cc1cc2[nH]ncc2c(-c2nc3c4c(nc(OC[C@@]56CCCN5C[C@H](F)C6)nc4c2F)N(C(C)c2cccnc2N)CCO3)c1C(F)(F)F` (stereo partly drawn) [Compound 372] are 4 nM, 0.8 nM and 0.3 nM.
In the same order, the values of `CC(c1cccnc1N)N1c2nc(OC[C@@]34CCCN3C[C@H](F)C4)nc3c(F)c(-c4c5c(cc6[nH]ncc46)CC=C5F)nc(c23)OC[C@@H]1C` (stereo partly drawn) [Compound 374] are 1 nM, 2 nM and 0.6 nM.
Consider `CC(c1cccnc1N)N1c2nc(OC[C@@]34CCCN3C[C@H](F)C4)nc3c(F)c(-c4c5cccnc5cc5[nH]ncc45)nc(c23)OC[C@@H]1C` (stereo partly drawn) [Compound 375], for which the IC50 in assay [1] is greater than 100 nM; in assay [2], 94 nM; in assay [3], 8 nM.
In the same order, the values of `CC(c1cccnc1N)N1c2nc(OC[C@@]34CCCN3C[C@H](F)C4)nc3c(F)c(-c4c5c(cc6[nH]ncc46)CCC(F)(F)C5)nc(c23)OC[C@@H]1C` (stereo partly drawn) [Compound 376] are 4 nM, 1 nM and 0.4 nM.
In the same order, the values of `Cc1cc2[nH]nc(C)c2c(-c2nc3c4c(nc(OC[C@@]56CCCN5C[C@H](F)C6)nc4c2F)N(C(C)c2cccnc2N)[C@@H](C)CO3)c1C(F)(F)F` (stereo partly drawn) [Compound 377] are 2 nM, 5 nM and 2 nM.
In the same order, the values of `Cc1cc2[nH]nc(C)c2c(-c2nc3c4c(nc(OC[C@@]56CCCN5C[C@H](F)C6)nc4c2F)N(C(C)c2cccnc2N)[C@@H](C)CO3)c1C(F)(F)F` (stereo partly drawn) [Compound 378] are 0.2 nM, 0.6 nM and 0.2 nM.
With `Cc1c(C(F)(F)F)c(-c2nc3c4c(nc(OC[C@@]56CCCN5C[C@H](F)C6)nc4c2F)N(C(C)c2cccnc2N)[C@@H](C)CO3)c2c(C)n[nH]c2c1F` (stereo partly drawn) [Compound 379], the IC50 was 0.1 nM in assay [1], 0.3 nM in assay [2] and 0.2 nM in assay [3].
`Cc1c(C(F)(F)F)c(-c2nc3c4c(nc(OC[C@@]56CCCN5C[C@H](F)C6)nc4c2F)N(C(C)c2cccnc2N)[C@@H](C)CO3)c2c(C)n[nH]c2c1F` (stereo partly drawn) [Compound 380]: the half-maximal inhibitory concentration (IC50) in assay [1] was 1 nM; in assay [2], 2 nM; in assay [3], 1 nM.
Consider `Cc1c(C(F)(F)F)c(-c2nc3c4c(nc(OC[C@@]56CCCN5C[C@H](F)C6)nc4c2F)N(C(C)c2cccnc2N)[C@@H](C)CO3)c2c(Cl)n[nH]c2c1F` (stereo partly drawn) [Compound 381], for which the IC50 in assay [1] worked out at 0.2 nM; in assay [2], 0.4 nM; in assay [3] it was 0.2 nM.
On to `Cc1c(C(F)(F)F)c(-c2cc3nc(OC[C@@]45CCCN4C[C@H](F)C5)nc4c3c(n2)OC[C@H](C)N4C(C)c2cccnc2N)c2c(C)n[nH]c2c1F` (stereo partly drawn) [Compound 383], for which the IC50 was determined as 0.4 nM in assay [1], 0.4 nM in assay [2] and 0.5 nM in assay [3].
On to `Cc1cc2[nH]nc(C)c2c(-c2cc3nc(OC[C@@]45CCCN4C[C@H](F)C5)nc4c3c(n2)OC[C@H](C)N4C(C)c2cccnc2N)c1C(F)(F)F` (stereo partly drawn) [Compound 385], for which the IC50 is 0.4 nM in assay [1], 2 nM in assay [2] and 0.7 nM in assay [3].
Take `CC(c1cccnc1N)N1c2nc(OC[C@@]34CCCN3C[C@H](F)C4)nc3cc(-c4c5ccccc5cc5[nH]ncc45)nc(c23)OC[C@@H]1C` (stereo partly drawn) [Compound 386]: the IC50 in assay [1] was found to be 6 nM; in assay [2], 0.7 nM; in assay [3] it was 0.4 nM.
`CC[C@H]1COc2nc(-c3c(C(F)(F)F)c(C)cc4[nH]ncc34)c(F)c3nc(OC[C@@]45CCCN4C[C@H](F)C5)nc(c23)N1C(C)c1cccnc1N` (stereo partly drawn) [Compound 387]: the IC50 in assay [1] is 17 nM; in assay [2] it was 5 nM; in assay [3], 2 nM.
In the same order, the values of `Cc1cc2[nH]ncc2c(-c2nc3c4c(nc(OC[C@@]56CCCN5C[C@H](F)C6)nc4c2F)N(C(C)c2cccnc2N)[C@H]2CCOC[C@@H]2O3)c1C(F)(F)F` (stereo partly drawn) [Compound 388] are greater than 100 nM, greater than 100 nM and greater than 100 nM.
In the same order, the values of `Cc1cc2[nH]ncc2c(-c2nc3c4c(nc(OC[C@@]56CCCN5C[C@H](F)C6)nc4c2F)N(C(C)c2cccnc2N)[C@H]2CCC[C@H]2O3)c1C(F)(F)F` (stereo partly drawn) [Compound 389] are greater than 100 nM, greater than 100 nM and 60 nM.
Consider `Cc1cc2[nH]ncc2c(-c2nc3c4c(nc(OC[C@@]56CCCN5C[C@H](F)C6)nc4c2F)N([C@H](C)c2cccnc2N)[C@@H](C2CC2)CO3)c1C(F)(F)F` [Compound 390], for which the IC50 in assay [1] was greater than 100 nM; in assay [2], 31 nM; in assay [3], 11 nM.
As to `Cc1cc2[nH]ncc2c(-c2nc3c4c(nc(OC[C@@]56CCCN5C[C@H](F)C6)nc4c2F)N([C@@H](C)c2cccnc2N)[C@@H](C2CC2)CO3)c1C(F)(F)F` [Compound 391], the 50% inhibitory concentration (IC50) in assay [1], in assay [2] and in assay [3] was greater than 100 nM each time.
As to `Cc1cc2[nH]ncc2c(-c2nc3c4c(nc(OC[C@@]56CCCN5C[C@H](F)C6)nc4c2F)N(C(C)c2cccnc2N)[C@@H]2COCC[C@H]2O3)c1C(F)(F)F` (stereo partly drawn) [Compound 392], the IC50 in assay [1], in assay [2] and in assay [3] was greater than 100 nM throughout.
Regarding `Cc1cc2[nH]ncc2c(-c2nc3c4c(nc(OC[C@@]56CCCN5C[C@H](F)C6)nc4c2F)N(C(C)c2cccnc2N)[C@H]2CCC[C@@H]2O3)c1C(F)(F)F` (stereo partly drawn) [Compound 393], the concentration for half-maximal inhibition (IC50) in assay [1], in assay [2] and in assay [3] was greater than 100 nM throughout.
For the compound `Cc1c(C(F)(F)F)c(-c2nc3c4c(nc(OCC5(CN(C)CCO)CC5)nc4c2F)N(C(C)c2cccnc2N)[C@@H](C)CO3)c2cn[nH]c2c1F` (stereo partly drawn) [Compound 394, (*)2-(((1-((((9S)-10-(1-(2-aminopyridin-3-yl)ethyl)-4-fluoro-5-(7-fluoro-6-methyl-5-(trifluoromethyl)-1H-indazol-4-yl)-9-methyl-9,10-dihydro-8H-7-oxa-1,3,6,10-tetraazacyclohepta[de]naphthalen-2-yl)oxy)methyl)cyclopropyl)methyl)(methyl)amino)ethan-1-ol], the concentration for half-maximal inhibition (IC50) worked out at 36 nM in assay [1], 2 nM in assay [2] and 1 nM in assay [3].
In the same order, the values of `Cc1c(C(F)(F)F)c(-c2nc3c4c(nc(OCC5(CN(C)C6CC6)CC5)nc4c2F)N(C(C)c2cccnc2N)[C@@H](C)CO3)c2cn[nH]c2c1F` (stereo partly drawn) [Compound 395] are 21 nM, 4 nM and 1 nM.
`Cc1c(C(F)(F)F)c(-c2nc3c4c(nc(OCC5(CN(C)C)CC5)nc4c2F)N(C(C)c2cccnc2N)[C@@H](C)CO3)c2cn[nH]c2c1F` (stereo partly drawn) [Compound 396]: the figures for the IC50 in assay [1], in assay [2] and in assay [3] were 6 nM, 1 nM and less than 0.457 nM, respectively.
As for `CCc1c(F)ccc2cc(O)cc(-c3nc4c5c(nc(OCC6(CN(C)C7CC7)CC6)nc5c3F)N(C(C)c3cccnc3N)[C@@H](C)CO4)c12` (stereo partly drawn) [Compound 397], the half-maximal inhibitory concentration (IC50) in assay [1] is 0.7 nM; in assay [2], 0.8 nM; in assay [3] it was less than 0.457 nM.
In the same order, the values of `CC(c1cccnc1N)N1c2nc(OC[C@@]34CCCN3C[C@H](F)C4)nc3c(F)c(-c4c5ccccc5cc5[nH]ncc45)nc(c23)O[C@H]2CCC[C@@H]21` (stereo partly drawn) [Compound 398] are 264 nM, 472 nM and 212 nM.
On to `C[C@H](c1cccnc1N)N1c2nc(OC[C@@]34CCCN3C[C@H](F)C4)nc3c(F)c(-c4c5ccccc5cc5[nH]ncc45)nc(c23)O[C@@H]2CCC[C@@H]21` [Compound 399], for which the figures for the half-inhibitory concentration (IC50) in assay [1], in assay [2] and in assay [3] were 403 nM, 57 nM and 65 nM, respectively.

For orientation: IC50 means the concentration at which inhibition is half-maximal.
